Measured values published in PubChem BioAssay AID1845195 (Molecular Pharmacology Branch, DTP, NCI, 2023).

Test system: 156681-154-R-J1 tumor spheroid viability
Assay: Anticancer human tumor 156681-154-R-J1 patient-derived melanoma cell line growth inhibition
Settings: spheroids with HUVEC and MSC; for IC50: curve of first compound; for viability, T/C: stronger effect = lower value
Excerpt: Multicellular complex tumor spheroid response to DNA repair inhibitors in combination with DNA-damaging drugs
This study explores the anticancer activities of DNA-damaging drugs and inhibitors of DNA damage repair, both as single agents and in combinations. Complex tumor spheroids comprised of malignant cells, endothelial cells and mesenchymal stem cells served as an in vitro model for human solid tumors. This model system incorporates physiologically relevant features and patient-derived or established malignant cell lines with clinically relevant genetic alterations from many tumor types. Twenty-six patient-derived or established malignant cell lines were evaluated representing sarcoma, melanoma, small cell lung cancer (SCLC), non-small cell lung cancer (NSCLC), as well as bladder, ovarian and pancreatic cancers. The concentration ranges selected for each drug and investigational agent were based upon clinically achievable concentrations if the clinical Cmax of the agent was known.
Compounds. The drugs and compounds olaparib (NSC753686), talazoparib (NSC767125), berzosertib (NSC777718), elimusertib (NSC800525), nedisertib (NSC802822), VX-984 (NSC792969), AZD-1390 (NSC803789), temozolomide (NSC362856), topotecan (NSC609699), trabectedin (NSC813783), staurosporine (NSC755774), and gemcitabine (NSC613327) were obtained from the National Cancer Institute (NCI) Developmental Therapeutics Program Chemical Repository. The FDA-approved anticancer drug set is available from the Developmental Therapeutics Program at https://dtp.cancer.gov/organization/dscb/obtaining/available_plates.htm. […] The stock solutions were prepared in dimethyl sulfoxide (DMSO, Sigma-Aldrich, St. Louis, MO, cat. D2650) at 400-fold the tested concentration and stored at -70 degrees C. Prior to their use, the stock solutions were diluted in fresh medium and the final DMSO concentration in the assay was 0.25% (v/v). All drugs and investigational agents were tested over a range starting from a high concentration at or near the clinical Cmax and decreasing in half-log increments. If the clinical Cmax for an agent had not been determined, the highest concentration tested was 10 microM.
Cell Lines. The patient-derived cancer cell (PDC) lines: 156681-154-R-J1-PDC, 283228-195-R-J1-PDC, 287954-098-R-J1-PDC, 292921-168-R-J2-PDC, 349418-098-R-PDC, 425362-245-T-J1-PDC, 556581-035-R-J1-PDC, and BL0293-F563-PDC were received from the NCI Patient-Derived Models Repository (PDMR, https://pdmr.cancer.gov). The established cell lines HS-SY-2 (RRID:CVCL_8719), MPNST, and SYO-1 (RRID:CVCL_7146) were obtained from the Sloan Kettering Institute. The alveolar soft parts sarcoma cell line ASPS-1 (RRID:CVCL_S738) was established at the NCI and grown from internal seed stocks. The following established cell lines were purchased from the American Type Culture Collection (ATCC, Manassas, VA): G-401 (ATCC, cat. CRL-1441, RRID:CVCL_0270), SW982 (ATCC, cat. HTB-93, RRID:CVCL_1734), VA-ES-BJ (ATCC, cat. CRL-2138, RRID:CVCL_1785), NCI-H719 (ATCC, cat. CRL-5837, RRID:CVCL_1582), NCI-H196 (ATCC, cat. CRL-5823, RRID:CVCL_1509), NCI-H841 (ATCC, cat. CRL-5845, RRID:CVCL_1595), NCI-H1618 (ATCC, cat. CRL-5879, RRID:CVCL_1480), NCI-H1876 (ATCC, cat. CRL-5902, RRID:CVCL_1503), DMS 114 (ATCC, cat. CRL-2066; RRID:CVCL_1174), NCI-H211 (ATCC, cat. CRL-5824; RRID:CVCL_1529), and SW 1271 (ATCC, cat. CRL-2177, RRID:CVCL_1716). The small cell lung cancer cell line COR-L88 was purchased from Sigma-Aldrich (cat. 92031917-1VL, RRID:CVCL_1141). The non-small cell lung cancer cell lines NCI-H226 (RRID:CVCL_1544) and NCI-H322M (RRID:CVCL_1557) were established at the NCI and grown from internal seed stocks. Pooled donor human umbilical vein endothelial cells (HUVEC, Lonza, cat. CC-2519) and human mesenchymal stem cells (hMSC, Lonza, cat. PT-2501) were purchased from Lonza (Walkersville, MD).
Cell Culture. All cells were maintained in an incubator at 37 degrees C and 5% CO2 with 95% humidity. […]

[1] = second compound 0.003 µM, first compound 0.00949 µM
[2] = second compound 0.003 µM, first compound 0.03 µM
[3] = second compound 0.003 µM, first compound 0.0949 µM
[4] = second compound 0.003 µM, first compound 0.3 µM
[5] = second compound 0.003 µM, first compound 0.949 µM
[6] = second compound 0.003 µM, first compound 3 µM
[7] = second compound 0.00949 µM, first compound 0.00949 µM
[8] = second compound 0.00949 µM, first compound 0.03 µM
[9] = second compound 0.00949 µM, first compound 0.0949 µM
[10] = second compound 0.00949 µM, first compound 0.3 µM
[11] = second compound 0.00949 µM, first compound 0.949 µM
[12] = second compound 0.00949 µM, first compound 3 µM
[13] = second compound 0.03 µM, first compound 0.00949 µM
[14] = second compound 0.03 µM, first compound 0.03 µM
[15] = second compound 0.03 µM, first compound 0.0949 µM
[16] = second compound 0.03 µM, first compound 0.3 µM
[17] = second compound 0.03 µM, first compound 0.949 µM
[18] = second compound 0.03 µM, first compound 3 µM
[19] = second compound 0.0949 µM, first compound 0.00949 µM
[20] = second compound 0.0949 µM, first compound 0.03 µM
[21] = second compound 0.0949 µM, first compound 0.0949 µM
[22] = second compound 0.0949 µM, first compound 0.3 µM
[23] = second compound 0.0949 µM, first compound 0.949 µM
[24] = second compound 0.0949 µM, first compound 3 µM
[25] = second compound 0.3 µM, first compound 0.00949 µM
[26] = second compound 0.3 µM, first compound 0.03 µM
[27] = second compound 0.3 µM, first compound 0.0949 µM
[28] = second compound 0.3 µM, first compound 0.3 µM
[29] = second compound 0.3 µM, first compound 0.949 µM
[30] = second compound 0.3 µM, first compound 3 µM
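Also: spheroids exposed to compounds for 7 days before readout.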
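For viability, T/C in this document: percent of vehicle control viability where 100% = DMSO-treated spheroids.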

CNCc1ccc(-c2cc(-c3nc(-c4ccc(S(=O)(=O)C(C)C)cc4)cnc3N)on2)cc1 + CC[C@@]1(O)C(=O)OCc2c1cc1n(c2=O)Cc2cc3c(CN(C)C)c(O)ccc3nc2-1
IC50 (second compound 0.003 µM): 733 nM | IC50 (second compound 0.00949 µM): 451 nM | IC50 (second compound 0.03 µM): 296 nM | IC50 (second compound 0.0949 µM): < 9.49 nM | IC50 (second compound 0.3 µM): < 9.49 nM | viability, T/C [1]: 103% | viability, T/C [2]: 93.6% | viability, T/C [3]: 82.1% | viability, T/C [4]: 65.2% | viability, T/C [5]: 46.8% | viability, T/C [6]: 20.3% | viability, T/C [7]: 136% | viability, T/C [8]: 92.3% | viability, T/C [9]: 73.8% | viability, T/C [10]: 58.8% | viability, T/C [11]: 46.8% | viability, T/C [12]: 7.92% | viability, T/C [13]: 66% | viability, T/C [14]: 60.1% | viability, T/C [15]: 60.1% | viability, T/C [16]: 50.4% | viability, T/C [17]: 27.5% | viability, T/C [18]: 7.5% | viability, T/C [19]: 17.7% | viability, T/C [20]: 19.3% | viability, T/C [21]: 24.2% | viability, T/C [22]: 14.5% | viability, T/C [23]: 12.8% | viability, T/C [24]: 0.15% | viability, T/C [25]: 31.1% | viability, T/C [26]: 26.9% | viability, T/C [27]: 24.2% | viability, T/C [28]: 24.2% | viability, T/C [29]: 14.8% | viability, T/C [30]: 10%

Cn1ncnc1[C@H]1c2n[nH]c(=O)c3cc(F)cc(c23)N[C@@H]1c1ccc(F)cc1 + CC[C@@]1(O)C(=O)OCc2c1cc1n(c2=O)Cc2cc3c(CN(C)C)c(O)ccc3nc2-1
IC50 (second compound 0.003 µM): 871 nM | IC50 (second compound 0.00949 µM): 207 nM | IC50 (second compound 0.03 µM): < 9.49 nM | IC50 (second compound 0.0949 µM): < 9.49 nM | IC50 (second compound 0.3 µM): < 9.49 nM | viability, T/C [1]: 87.1% | viability, T/C [2]: 102% | viability, T/C [3]: 82.5% | viability, T/C [4]: 77.3% | viability, T/C [5]: 47.8% | viability, T/C [6]: 8.02% | viability, T/C [7]: 58.8% | viability, T/C [8]: 65.9% | viability, T/C [9]: 48.8% | viability, T/C [10]: 50% | viability, T/C [11]: 21.2% | viability, T/C [12]: 9.62% | viability, T/C [13]: 33.5% | viability, T/C [14]: 28.7% | viability, T/C [15]: 22.1% | viability, T/C [16]: 18.2% | viability, T/C [17]: 15.2% | viability, T/C [18]: 6.77% | viability, T/C [19]: 29.5% | viability, T/C [20]: 33.4% | viability, T/C [21]: 32.7% | viability, T/C [22]: 31.2% | viability, T/C [23]: 24.9% | viability, T/C [24]: 10.6% | viability, T/C [25]: 41.8% | viability, T/C [26]: 43.8% | viability, T/C [27]: 47.8% | viability, T/C [28]: 43.3% | viability, T/C [29]: 44% | viability, T/C [30]: 24.6%

O=C(c1cc(Cc2n[nH]c(=O)c3ccccc23)ccc1F)N1CCN(C(=O)C2CC2)CC1 + CC[C@@]1(O)C(=O)OCc2c1cc1n(c2=O)Cc2cc3c(CN(C)C)c(O)ccc3nc2-1
IC50 (second compound 0.003 µM): 21300 nM | IC50 (second compound 0.00949 µM): 14800 nM | IC50 (second compound 0.03 µM): < 94.9 nM | IC50 (second compound 0.0949 µM): < 94.9 nM | IC50 (second compound 0.3 µM): < 94.9 nM | viability, T/C [3]: 103% | viability, T/C [4]: 80.6% | viability, T/C [5]: 74.2% | viability, T/C [6]: 74.5% | viability, T/C (second compound 0.003 µM, first compound 9.49 µM): 63% | viability, T/C (second compound 0.003 µM, first compound 30 µM): 42.1% | viability, T/C [9]: 59.1% | viability, T/C [10]: 64.2% | viability, T/C [11]: 76.7% | viability, T/C [12]: 62.6% | viability, T/C (second compound 0.00949 µM, first compound 9.49 µM): 62% | viability, T/C (second compound 0.00949 µM, first compound 30 µM): 31.2% | viability, T/C [15]: 38.4% | viability, T/C [16]: 41.1% | viability, T/C [17]: 36.7% | viability, T/C [18]: 29.8% | viability, T/C (second compound 0.03 µM, first compound 9.49 µM): 15.3% | viability, T/C (second compound 0.03 µM, first compound 30 µM): 15.5% | viability, T/C [21]: 33.5% | viability, T/C [22]: 35.5% | viability, T/C [23]: 33% | viability, T/C [24]: 25.7% | viability, T/C (second compound 0.0949 µM, first compound 9.49 µM): 21.7% | viability, T/C (second compound 0.0949 µM, first compound 30 µM): 9.48% | viability, T/C [27]: 46% | viability, T/C [28]: 46.4% | viability, T/C [29]: 46.6% | viability, T/C [30]: 46.2% | viability, T/C (second compound 0.3 µM, first compound 9.49 µM): 42.3% | viability, T/C (second compound 0.3 µM, first compound 30 µM): 13.3%
